The record followed here is PubChem BioAssay AID977605 (Broad Institute, 2014).

Activity calls are given as the source filed them.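 The calls were made as follows: active = fitted curve reaches 40% activation below the top valid tested dose, in every test run; inconclusive = test runs disagree on the call; inactive = the rest, including effects opposite to the expected direction.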

The first assay in a line: E-selectin inducers in HUVECs, dose response, imaging, HUVEC, cherry-picked samples (AID 977605).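 Also: signal is the share of imaged cells scored positive for E-selectin.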 The following applies: HUVEC E-selectin immunostaining, at 10 µM (top of the series), percent of TNF-alpha response over vehicle.
`C[C@@H]1CN([C@H](C)CO)C(=O)c2c(c3ccccc3n2C)-c2ccccc2CO[C@@H]1CN(C)Cc1ccccc1C(F)(F)F`: the activation is 0.002% (inactive).

The assay is the same for the next values; noted with them: HUVEC E-selectin immunostaining, at 18 µM (top of the series), percent of TNF-alpha response over vehicle.
Turning to `COc1ccc(NC(=O)N(C)C[C@H]2Oc3ccc(NC(=O)CCCCCC(=O)Nc4ccccc4N)cc3CC(=O)N([C@@H](C)CO)C[C@H]2C)cc1`, the activation was 0.745% (inactive).

Staying with this assay, now noted: HUVEC E-selectin immunostaining, at 19.5 µM (top of the series), percent of TNF-alpha response over vehicle.
With `Cc1ccc(C(=O)Nc2cc(C)nn2CCC#N)cc1`, the activation was 0.178% (inactive).

`CC1CCC(NC(=O)CCN2C(=O)C3C4C=CC(C4)C3C2=O)CC1` (stereo not given): the activation was 0.46% (inactive).

Turning to `Cc1cc(C(=O)Nc2ccc(Cl)cc2)n(-c2ccccc2)n1`, the activation is 0.412% (inactive).

For `O=C(NCc1ccccc1)C(c1ccc(C(F)(F)F)cc1)N1CCN(CCN2CCOCC2)CC1` (stereo not given), the activation is 6.03% (inactive).

Take `CC(C)NC(=O)N(C)C[C@@H]1Oc2ccc(NC(=O)CCC(F)(F)F)cc2CC(=O)N([C@@H](C)CO)C[C@H]1C`: the activation was 0.007% (inactive).

As for `COc1ccc(S(=O)(=O)N(C)C[C@@H]2Oc3c(NS(=O)(=O)c4ccc(F)cc4)cccc3C(=O)N([C@H](C)CO)C[C@@H]2C)cc1`, the activation was -0.15% (inactive).

With `C[C@H](CO)N1C[C@H](C)[C@@H](CN(C)C(=O)NC2CCCCC2)Oc2c(NC(=O)Nc3ccc(F)cc3)cccc2C1=O`, the activation is 0.219% (inactive).

As for `COc1ccc(CN(C)C[C@@H]2Oc3ccc(NC(=O)Nc4ccc(F)cc4)cc3CC(=O)N([C@@H](C)CO)C[C@@H]2C)cc1`, the activation was 0.025% (inactive).

In the case of `CCCCNC(=O)N1c2ccccc2CC1C` (stereo not given), the activation is 0.083% (inactive).

Turning to `C[C@@H]1CN([C@@H](C)CO)S(=O)(=O)c2ccc(C#CC3CC3)cc2O[C@@H]1CN(C)Cc1cccnc1`, the activation is -0.068% (inactive).

With `COc1ccc2[nH]c(=O)c(CN(c3ccccc3)S(=O)(=O)c3ccccc3)cc2c1`, the activation was 3% (inactive).

With `C[C@@H]1CN([C@H](C)CO)C(=O)Cc2cc(NS(=O)(=O)c3ccc(F)cc3)ccc2O[C@@H]1CN(C)S(=O)(=O)c1ccc(Cl)cc1`, the activation was 1.34% (inactive).

With `Cc1noc(C)c1S(=O)(=O)N(C)C[C@@H]1Oc2ccc(NC(=O)Nc3ccc(F)cc3)cc2CC(=O)N([C@H](C)CO)C[C@H]1C`, the activation is -0.155% (inactive).

Regarding `CCOc1ccc2ncc(S(=O)(=O)c3ccc(C)cc3)c(N3CCC4(CC3)OCCO4)c2c1`, the activation was -0.045% (inactive).

For the compound `C[C@H](CO)N1C[C@H](C)[C@@H](CN(C)Cc2ccc(Oc3ccccc3)cc2)Oc2ccc(NC(=O)Nc3ccc(C(F)(F)F)cc3)cc2CC1=O`, the activation is -0.23% (inactive).

With `Cc1noc(C)c1NC(=O)N(C)C[C@H]1Oc2ccc(NS(=O)(=O)c3cccs3)cc2C(=O)N([C@H](C)CO)C[C@@H]1C`, the activation is 3.28% (inactive).

Turning to `Cc1noc(C)c1NC(=O)Nc1ccc2c(c1)CC(=O)N([C@@H](C)CO)C[C@H](C)[C@@H](CN(C)S(=O)(=O)c1ccccc1)O2`, the activation was -0.1% (inactive).

As for `Cc1nc(N2CCN(c3ccccn3)CC2)c2c(C)c(C(=O)Nc3ccc(F)cc3Cl)sc2n1`, the activation was -0.158% (inactive).

On to `CCc1ccc(C(C(=O)NC2CCCCC2)N(C(=O)c2csnn2)C2CC2)cc1` (stereo not given), for which the activation was -0.021% (inactive).

With `C[C@@H]1CN([C@H](C)CO)C(=O)c2cccc(NC(=O)Nc3ccc4c(c3)OCO4)c2O[C@@H]1CN(C)C(=O)Nc1ccc(C(F)(F)F)cc1`, the activation is 0.256% (inactive).

On to `C[C@@H]1CN([C@H](C)CO)C(=O)Cc2cc(NS(=O)(=O)c3ccc(F)cc3)ccc2O[C@H]1CN(C)S(=O)(=O)c1ccc(Cl)cc1`, for which the activation was 5.23% (inactive).

As for `CN(C)C1(CNC(=O)C2CCN(S(=O)(=O)c3cc(Cl)ccc3Cl)CC2)CCCCC1`, the activation was -0.207% (inactive).

`COCC(=O)N(C)C[C@@H]1Oc2cc(-c3ccc(F)cc3)ccc2S(=O)(=O)N([C@H](C)CO)C[C@H]1C`: the activation was -0.159% (inactive).

With `CN(CC(=O)Nc1ccccc1Br)C(=O)CNC(=O)C1CCCCC1`, the activation was 0.383% (inactive).

For the compound `Cc1noc(C)c1NC(=O)N(C)C[C@H]1Oc2ccc(NS(=O)(=O)c3c(C)noc3C)cc2C(=O)N([C@H](C)CO)C[C@@H]1C`, the activation is -0.221% (inactive).

`CC(C)NC(=O)Nc1cccc2c1O[C@@H](CN(C)Cc1ccc(C(F)(F)F)cc1)[C@H](C)CN([C@H](C)CO)C2=O`: the activation was -0.054% (inactive).

Regarding `C[C@@H]1CN([C@H](C)CO)C(=O)c2cc(NC(=O)Nc3ccc(F)cc3)ccc2O[C@H]1CN(C)S(=O)(=O)c1cccs1`, the activation is 0.059% (inactive).

As to `CC1=NC(C)(C)Cc2c(C)cccc21`, the activation was -0.148% (inactive).

On to `COc1ccc(NC(=O)N(C)C[C@@H]2Oc3c(NS(=O)(=O)c4cn(C)cn4)cccc3C(=O)N([C@@H](C)CO)C[C@H]2C)cc1`, for which the activation was -0.199% (inactive).

On to `C[C@H]1CN([C@@H](C)CO)C(=O)c2cc(Br)cnc2O[C@H]1CN(C)Cc1cccc(F)c1`, for which the activation was -0.038% (inactive).

`C[C@H]1CN([C@@H](C)CO)C(=O)Cc2cc(NC(=O)Cc3cn(C)c4ccccc34)ccc2O[C@H]1CN(C)Cc1ccc(C(F)(F)F)cc1`: the activation is 16.2% (inactive).

On to `Cc1ccc(COc2ccc(/C=N/O)cc2)cc1`, for which the activation is -0.083% (inactive).

As to `O=C(O)CCC(=O)NCC(=O)c1ccc(F)cc1`, the activation is -0.239% (inactive).

With `O=S(=O)(Nc1cccc(S(=O)(=O)N2CCCC2)c1)c1cccs1`, the activation was 2.79% (inactive).

Turning to `Cc1noc(C)c1S(=O)(=O)Nc1ccc2c(c1)C(=O)N([C@@H](C)CO)C[C@H](C)[C@H](CN(C)Cc1ccc3c(c1)OCO3)O2`, the activation was -0.065% (inactive).

On to `CC(C)NC(=O)N(C)C[C@@H]1Oc2ccc(NC(=O)CCN3CCOCC3)cc2C(=O)N([C@@H](C)CO)C[C@H]1C`, for which the activation is 0.429% (inactive).

For the compound `C[C@H]1CN([C@@H](C)CO)C(=O)Cc2cc(NC(=O)Nc3ccc(F)cc3)ccc2O[C@H]1CN(C)C(=O)Nc1ccc(C(F)(F)F)cc1`, the activation was 0.219% (inactive).

Turning to `CC(C)NC(=O)Nc1cccc2c1O[C@H](CN(C)Cc1ccc(Cl)c(Cl)c1)[C@@H](C)CN([C@@H](C)CO)C2=O`, the activation is 0.01% (inactive).

On to `C[C@@H]1CN([C@H](C)CO)C(=O)Cc2cc(NC(=O)Nc3ccccc3)ccc2O[C@@H]1CN(C)C`, for which the activation was 4.89% (inactive).

As for `Cc1cc(C)c2sc(NNC(=O)C3COc4ccccc4O3)nc2c1` (stereo not given), the activation is 0.141% (inactive).

Consider `Cc1noc(C)c1S(=O)(=O)Nc1ccc2c(c1)C(=O)N([C@H](C)CO)C[C@@H](C)[C@@H](CN(C)Cc1ccc3c(c1)OCO3)O2`, for which the activation was -0.086% (inactive).

As for `CCCC#Cc1ccc2c(c1)O[C@H](CN(C)C(C)=O)[C@H](C)CN([C@@H](C)CO)S2(=O)=O`, the activation was 0.607% (inactive).

For the compound `C[C@@H]1CN([C@H](C)CO)C(=O)c2cccc(NC(=O)Nc3ccc(F)cc3)c2O[C@@H]1CN(C)S(=O)(=O)c1cn(C)cn1`, the activation is -0.066% (inactive).

Take `C[C@@H]1CN([C@@H](C)CO)C(=O)c2cc(NS(=O)(=O)c3cccs3)ccc2O[C@@H]1CN(C)C(=O)Nc1ccc2c(c1)OCO2`: the activation was -0.086% (inactive).

For `C[C@@H]1CN([C@H](C)CO)C(=O)c2cc(NC(=O)CCN3CCOCC3)ccc2O[C@H]1CN(C)C(=O)Nc1ccc(C(F)(F)F)cc1`, the activation is -0.038% (inactive).

On to `C[C@H](CO)N1C[C@H](C)[C@H](CN(C)Cc2ccc(Cl)c(Cl)c2)Oc2ccc(NC(=O)Nc3ccc4c(c3)OCO4)cc2CC1=O`, for which the activation was -0.197% (inactive).

The same assay, now with this note: HUVEC E-selectin immunostaining, at 21 µM (top of the series), percent of TNF-alpha response over vehicle.
As to `C[C@H]1CN([C@@H](C)CO)C(=O)c2cccc(NC(=O)Nc3ccc(F)cc3)c2O[C@@H]1CN(C)C(=O)NC1CCCCC1`, the activation is 0.342% (inactive).

Regarding `CC(C)NC(=O)N(C)C[C@H]1Oc2c(NC(=O)CCCCCC(=O)Nc3ccccc3N)cccc2C(=O)N([C@@H](C)CO)C[C@H]1C`, the activation is -0.093% (inactive).

For the compound `COc1ccc(S(=O)(=O)Nc2cccc3c2O[C@H](CN(C)C(=O)Nc2c(C)noc2C)[C@@H](C)CN([C@H](C)CO)C3=O)cc1`, the activation is -0.117% (inactive).

With `C[C@@H]1CN([C@@H](C)CO)C(=O)c2cccc(NC(=O)c3ccncc3)c2O[C@H]1CN(C)C(=O)Nc1cccc2ccccc12`, the activation is 1.89% (inactive).

As to `C[C@H]1CN([C@@H](C)CO)C(=O)Cc2cc(NC(=O)Nc3ccc(C(F)(F)F)cc3)ccc2O[C@H]1CN(C)C(=O)Nc1cccc2ccccc12`, the activation is 0.822% (inactive).

Take `COc1ccc(S(=O)(=O)Nc2ccc3c(c2)C(=O)N([C@@H](C)CO)C[C@@H](C)[C@@H](CN(C)Cc2ccc(Cl)c(Cl)c2)O3)cc1`: the activation was -0.053% (inactive).

`COc1ccc(S(=O)(=O)Nc2ccc3c(c2)CC(=O)N([C@@H](C)CO)C[C@@H](C)[C@@H](CN(C)C(=O)NC2CCCCC2)O3)cc1`: the activation is -0.169% (inactive).

Take `CC(C)NC(=O)Nc1ccc2c(c1)C(=O)N([C@@H](C)CO)C[C@@H](C)[C@H](CN(C)Cc1ccc(C(F)(F)F)cc1)O2`: the activation was 0.029% (inactive).

Regarding `C[C@@H]1CN([C@@H](C)CO)C(=O)Cc2cc(NS(=O)(=O)c3ccc(F)cc3)ccc2O[C@@H]1CN(C)S(=O)(=O)c1ccc(Cl)cc1`, the activation is -0.065% (inactive).

Turning to `CC(C)NC(=O)Nc1ccc2c(c1)CC(=O)N([C@H](C)CO)C[C@@H](C)[C@@H](CN(C)Cc1ccc(Cl)c(Cl)c1)O2`, the activation was 0.047% (inactive).

Turning to `C[C@H](CO)N1C[C@H](C)[C@@H](CN(C)S(C)(=O)=O)Oc2c(NC(=O)C3CCCCC3)cccc2C1=O`, the activation is 0.25% (inactive).

As for `Cc1noc(C)c1NC(=O)N(C)C[C@@H]1Oc2ccc(NC(=O)c3ccncc3)cc2C(=O)N([C@H](C)CO)C[C@@H]1C`, the activation is 0.043% (inactive).
